Like-named read-outs stand apart in the source and are kept apart here.
Experiment: Lewis acidity measurement method (1): rate constant for the reaction between CoTPP and oxygen in the presence of a Lewis acid
Assay type: physicochemical
[1] = rate constant for reaction between CoTPP and oxygen in presence of the Lewis acid, MeCN, room temperature

For `CCCC[N+](CCCC)(CCCC)CCCC.F[P-](F)(F)(F)(F)F` [tetrabutylammonium hexafluorophosphate], the “kcat, M^−2 s^−1” value was greater than 0.1 M^−2 s^−1.

In the case of benzethonium chloride, the “kcat, M^−2 s^−1” value [1] was 0.24 M^−2 s^−1.

In the case of benzalkonium chloride, the “kcat, M^−2 s^−1” value [1] was 0.18 M^−2 s^−1.

From patent US20220355283A1, “DRUG, DRUG MANUFACTURING METHOD, AND WATER PURIFICATION METHOD” (priority 2019, published 2022)
